# Source: patent US8563254B2, “Biomarkers of tumor pharmacodynamic response” (Novartis AG, priority 2009, dated 2013)
# Legend:
# [1] = system: GTL-16 cells; test: IL-8 ELISA of GTL-16 culture supernatants; assay type: cell-based, human
# Procedure: (§1) A malignant melanoma cell line A375 (American Type Culture Collection, Manassas, Va., USA) and gastric cancer cell line, GTL-16 (Prof Silvia Giordano, Institute for Cancer Research and Treatment, Turin, Italy) were cultured in RPMI 1640 supplemented with 10% FBS and 1% penicillin-streptomycin at 37° C. in 5% CO2 (GIBCO reagents, Invitrogen Corporation, Carlsbad, Calif., USA). Cell numbers were determined by ViCell™ XR Cell Viability Analyzer 2.03 (Beckman Coulter, Inc., Fullerton, Calif., USA). Cells were seeded in poly-D-lysine coated plates (BIOCOAT Cell Environments, Becton Dickinson Biosciences, San Jose, Calif., USA).
# (§2) Human IL-8 levels in cell culture supernatants from GTL-16 and A375 cells were measured by a sandwich enzyme-linked immunosorbent assay (R&D Systems, Inc., Minneapolis, Minn., USA). Cell culture supernatants were collected from DMSO and NVP-AUY922 treated cells 16, 24, 48 and 72 hr post-treatment and stored at −20° C.
# (§3) To better characterize the relationship between Hsp90 inhibitor treatment and effects on IL-8 production, GTL-16 and A375 cells were washed and treated for 24 hr with fresh medium containing various concentrations of NVP-AUY922. For this length of treatment time, maximal inhibition of IL-8 accumulation appears to be reached at 0.3 μM as measured by enzyme-linked immunosorbent assay; this equates to 80% and 60% reductions in GTL-16 and A375 cultures, respectively (FIGS. 2A, B).
# [2] = system: A375 cells; test: IL-8 ELISA of A375 culture supernatants; assay type: cell-based, human
# Procedure: as §1, §2, §3
# [3] = system: A375 cells; test: Cell viability by CellTiter-Glo, A375; assay type: cell-based, human; settings: A375, 0.3 μM, 72 hr treatment time
# Procedure: Cell Viability was measured by CellTiter-Glo assay (Promega U.S., Madison, Wis., USA). GTL-16 and A375 cells were grown in 6-well poly-D-lysine coated plates (BD Biosciences). Cells were treated with NVP-AUY922. Cell viability was measured 16, 24, 48 and 72 hr post-treatment with Hsp90 inhibitor. Briefly supernatants were removed and cells were washed with 3 ml of PBS, pH 7.4. 1 ml of a two component CellTiter-Glo reagent was added to each well and the plates were shaken vigorously for 2 min, followed by 10 min incubation at room temperature in the dark. Luminescent signal intensity was recorded with an integration time set between 0.25 and 1 s/well.
# [4] = system: A375 tumor-bearing mice; test: Serum IL-8 / mouse KC in A375 mouse xenograft model; assay type: in vivo; parameters: drop of serum IL-8 levels / time at which serum IL-8 recovered to pre-treatment level: dose or concentration left out as unconfirmed
# Procedure: The in vivo study was carried out in strict accordance with Swiss law for animal protection and was approved by the Swiss Cantonal Veterinary Office of Basel-Stadt. GTL-16 (4×10^6) and A375 cells (5×10^6) were inoculated subcutaneously in the right flank in 200 μl Hanks' balanced salt solution (HBSS) or PBS, respectively. Invasive procedures were performed under Forene anesthesia. All experiments were performed in female Harlan HsdNpa: Athymic Nude-nu mice (Laboratory Animal Services, Novartis Pharma AG, Basel). The animals were kept under optimized hygienic conditions with 12 hr dark, 12 hr light conditions. The animals were fed food and water ad libitum. […] Mice in the control group were injected with the vehicle (D5W). Serum was isolated and tumors dissected over the time course 0-168 hr. Tumors were cut in two halves. One half was paraffin embedded and the other snap frozen, and stored at −80° C.
# Human IL-8 levels in cell culture supernatants treated with NVP-AUY922 were initially assessed as part of a multiplexed bead-based cytokine panel (hu 27-plex panel I, Bio-rad Laboratories, Hercules, Calif., USA) with a BioPlex Suspension Array System (Bio-rad). Human IL-8 and mouse KC levels in serum derived from GTL-16 and A375 tumor-bearing mice treated with NVP-AUY922 were measured by single-plex cytokine bead-based assay (Milliplex, Millipore, Billerica, Mass., USA). The BioPlex system uses a liquid suspension array of beads. The beads align in a single file through a flow cell to the detector, where a red classification laser at a wavelength of 635 nm and a green reporter laser at a wavelength of 532 nm are used to identify each bead's spectral address and associated reporter signal, respectively.
structure (smiles),measurement,setting,value
"CCNC(=O)c1noc(-c2cc(C(C)C)c(O)cc2O)c1-c1ccc(CN2CCOCC2)cc1 [NVP-AUY922, 5-(2,4-Dihydroxy-5-isopropyl-phenyl)-4-(4-morhpolin-4-ylmethyl-phenyl)-isoxazole-3-carboxylic acid ethylamide]",time within which IL-8 production dramatically declines,"[1]; GTL-16, 0.3 μM",≤ 16 h
same,concentration at which maximal inhibition of IL-8 accumulation is reached,"[1]; GTL-16, 24 hr treatment",0.3 µM
same,inhibition at 0.3 µM,"[1]; Homo sapiens, GTL-16, 0.3 μM, 24 hr, ELISA, read-out: reduction of IL-8 accumulation (maximal inhibition)",80%
same,time within which IL-8 production dramatically declines,"[2]; A375, 0.3 μM",≤ 16 h
same,concentration at which maximal inhibition of IL-8 accumulation is reached,"[2]; A375, 24 hr treatment",0.3 µM
same,inhibition at 0.3 µM,"[2]; Homo sapiens, A-375, A375, 0.3 μM, 24 hr, ELISA, read-out: reduction of IL-8 accumulation (maximal inhibition)",60%
same,cell viability over time,[3],steadily declines
same,time at which serum IL-8 recovered to pre-treatment level,[4],168 h
same,drop of serum IL-8 levels,[4]; 48 hr post-treatment,approximately 40%
same,"murine IL-8 levels, measured indirectly as mu KC",[4]; serum,unchanged
